# From patent publication EP0878193A1, “REMEDIES FOR HERPESVIRUS INFECTION CAUSED BY HERPESVIRUS AND PREVENTIVES FOR RECURRENCE OF THE INFECTION BOTH CONTAINING TRITERPENE DERIVATIVES AS THE ACTIVE INGREDIENT” (Showa Shell Sekiyu K.K., priority 1996, dated 1997)
# Legend:
# [1] = system: HSV-1, AP^r1, TK^-, HSV-2; test: viral growth inhibition activity, plaque forming unit (PFU/mℓ) as index, 24 hours culture; assay type: cell-based, herpes simplex virus; conditions: 5, 10 or 20 µg/mℓ compared with the control (water); also drug-resistant strains AP^r and TK^-; Table 2 is an image
# Method: Next, the viral growth inhibition activity was measured in the following manner making use of a plaque forming unit (PFU/mℓ) as an index. That is, each of the above-described viral strains was adsorbed to Vero cells which have been cultured into monolayer in a plastic dish of 60 mm in diameter, and the resulting cells were supplemented with 2% fetal bovine serum-added MEM medium (3 mℓ) and 3-oxo-olean-18-en-28-oic acid solution (1 mℓ) having varied concentration and cultured at 37°C for 24 hours. After 24 hours, the thus infected cells were subjected to three times of freezing-thawing and then to centrifugation (3,000 rpm, 15 minutes), and the resulting supernatant fluid was used as a virus solution to count the number of infectious viruses by the above-described plaque formation test and to calculate the plaque forming unit (PFU/mℓ) based on the counts.
# [2] = system: HSV-1; test: amount of virus in skin and brain of mice infected with HSV-1 (plaque assay of tissue homogenates); assay type: in vivo; conditions: for Skin/brain (ratio): ratio of the percentages of skin and brain
# Method: Next, effects of 3-oxo-olean-18-en-28-oic acid (moronic acid) against a virus in the animal body were examined by infecting skin cell tissues of mice with the viral strain HSV-1 and measuring the amount of the virus particles remained in the affected part of the skin and those migrated from the skin into intracerebral nerve cells 2, 3, 4 and 6 days after the infection, when a control (water only) or a varied amount of 3-oxo-olean-18-en-28-oic acid (moronic acid) was administered to the mice. In each of the experiments 1 and 2, three mice were used in one group and the average number of virus particles obtained from each mouse was used as the amount of virus. The amount of virus was measured by cutting off an area of 1 cm^2 around the affected part in the case of the skin or using the entire brain portion in the case of the brain. Each of the tissue samples was mixed with 2 mℓ of physiological saline and homogenated, the supernatant fluid obtained therefrom was used as a virus test solution to carry out a plaque assay (plaque measuring method) using cultured Vero cells, and the number of plaques thus counted was used as the amount of virus. The skin/brain ratio is a value calculated as the ratio of respective percentages obtained from the skin and the brain.
# With regard to the numeral in ( ) such as (100%), (65.4%) or the like shown in the item of the amount of virus, the amount of virus in the control was defined as 100% and shown as (100%), the ratio of residual virus particles when 10 mg/kg of moronic acid was administered was 65.4% so that it was shown as (65.4%), and other numerals in ( ) under respective data were shown in the same manner.
# [3] = system: HSV-1; test: viral DNA synthesis, slot-blot hybridization with radiation-labeled probe in Vero cells; assay type: cell-based, herpes simplex virus type 1 (strain 7401 H); conditions: HSV-1 in Vero cells; 0, 5, 10 or 20 µg/mℓ; even at 20 µg/mℓ; Fig. 2
# Method: Finally, in order to examine effects of moronic acid on the viral synthesis ability, the amount of virus particles in cultured cells was measured by the slot-blot hybridization described in J. Traditional Med., 12, 187 - 194 (1995). Using a radiation-labeled probe, viral DNA synthesis ability of herpesvirus strains HSV-1 and AP^r1 was measured just after adsorption of the viruses to animal cells (Vero cells) or when concentration of 3-oxo-olean-18-en-28-oic acid (moronic acid) was changed (0, 5, 10 or 20 µg/mℓ), with the results shown as a chart in Fig. 2 (photograph).
# In Fig. 2, rough amounts of each herpesvirus are shown by the strength of black parts. For the sake of comparison, DNA copy number of a virus TK^- is shown on the right-side column as a reference strength.
# [4] = system: TK^-; test: plaque formation test (antiviral activity, CPE as index) on Vero cells; assay type: cell-based, TK deficiency herpes simplex virus type 1 (strain B 2006); conditions: Human alphaherpesvirus 1, Vero, read-out: EC50 (µg/mℓ) (average ± standard deviation)
# Source text: In order to examine antiviral activity, herpes simplex virus type 1 (strain 7401 H) (referred sometimes to as "HSV-1" hereinafter), TK deficiency herpes simplex virus type 1 (strain B 2006) (referred sometimes to as "TK^-" hereinafter), phosphono acetic acid (referred to as "PAA" hereinafter) resistant herpes simplex virus type 1 (PAA resistant strain derived from 7401 H) (referred sometimes to as "AP^r1" hereinafter) and herpes simplex virus type 2 (strain Ito 1262) (referred sometimes to as "HSV-2" hereinafter) were used as viruses. […]
# That is, the above-described virus solution was diluted to a concentration of 100 plaques/0.2 mℓ, the thus diluted virus solution (0.2 mℓ) was inoculated into Vero cells which have been cultured into monolayer in a plastic dish of 60 mm in diameter, and the mixture was incubated at 37°C for 1 hour to effect adsorption of viruses to the Vero cells. After the adsorption, 2% fetal bovine serum-added MEM medium (5 mℓ) containing each drug solution to be measured having varied drug concentration and 0.8% methyl cellulose was overlaid on the just described virus-adsorbed monolayer Vero cells which were subsequently cultured at 37°C for 2 to 5 days to effect plaque formation. […] The number of plaques was counted under a stereoscopic microscope. […]
# [5] = Exp. 1, 2 days after infection, 10 mg/kg
# [6] = Exp. 1, 4 days after infection, 1 mg/kg
# [7] = Exp. 1, 4 days after infection, 10 mg/kg
# [8] = Exp. 1, 6 days after infection, 1 mg/kg
# [9] = Exp. 1, 6 days after infection, 10 mg/kg
# [10] = Exp. 2, 3 days after infection, 1 mg/kg
# [11] = Exp. 2, 3 days after infection, 5 mg/kg
# [12] = Exp. 2, 6 days after infection, 1 mg/kg
# [13] = Exp. 2, 6 days after infection, 5 mg/kg
smiles,measurement,setting,value
"CC1(C)C=C2[C@H]3CC[C@@H]4[C@@]5(C)CCC(=O)C(C)(C)[C@@H]5CC[C@@]4(C)[C@]3(C)CC[C@@]2(C(=O)O)CC1 [Moronic acid, 3-oxo-olean-18-en-28-oic acid]",ratio of plaques formed by each viral strain,[1],decreases
same,"Amount of virus (average ± standard deviation, PFU/organ) Skin",[2]; [5],4.9 ± 0.0 (log10 PFU)/cm^2
same,"Amount of virus Skin, relative to control defined as 100%",[2]; [5],91.2%
same,"Amount of virus (average ± standard deviation, PFU/organ) Brain",[2]; [6],< 2.4 ± 0.0 (log10 PFU)/total
same,"Amount of virus (average ± standard deviation, PFU/organ) Skin",[2]; [6],6.1 ± 0.4 (log10 PFU)/cm^2
same,"Amount of virus Brain, relative to control defined as 100%",[2]; [6],< 83.9%
same,"Amount of virus Skin, relative to control defined as 100%",[2]; [6],93.5%
same,Skin/brain (ratio),[2]; [6],>1.12
same,"Amount of virus (average ± standard deviation, PFU/organ) Brain",[2]; [7],< 2.40 ± 0.0 (log10 PFU)/total
same,"Amount of virus (average ± standard deviation, PFU/organ) Skin",[2]; [7],6.3 ± 0.3 (log10 PFU)/cm^2
same,"Amount of virus Brain, relative to control defined as 100%",[2]; [7],< 83.9%
same,"Amount of virus Skin, relative to control defined as 100%",[2]; [7],96.3%
same,Skin/brain (ratio),[2]; [7],>1.15
same,"Amount of virus (average ± standard deviation, PFU/organ) Brain",[2]; [8],3.5 ± 0.4 (log10 PFU)/total
same,"Amount of virus (average ± standard deviation, PFU/organ) Skin",[2]; [8],6.1 ± 0.2 (log10 PFU)/cm^2
same,"Amount of virus Brain, relative to control defined as 100%",[2]; [8],85.6%
same,"Amount of virus Skin, relative to control defined as 100%",[2]; [8],95.3%
same,Skin/brain (ratio),[2]; [8],1.12
same,"Amount of virus (average ± standard deviation, PFU/organ) Brain",[2]; [9],2.3 ± 0.3 (log10 PFU)/total
same,"Amount of virus (average ± standard deviation, PFU/organ) Skin",[2]; [9],6.0 ± 0.1 (log10 PFU)/cm^2
same,"Amount of virus Brain, relative to control defined as 100%",[2]; [9],57.0%
same,"Amount of virus Skin, relative to control defined as 100%",[2]; [9],94.2%
same,Skin/brain (ratio),[2]; [9],1.674
same,"Amount of virus (average ± standard deviation, PFU/organ) Skin",[2]; [10],5.5 ± 0.4 (log10 PFU)/cm^2
same,"Amount of virus Skin, relative to control defined as 100%",[2]; [10],98.2%
same,"Amount of virus (average ± standard deviation, PFU/organ) Skin",[2]; [11],5.1 ± 0.4 (log10 PFU)/cm^2
same,"Amount of virus Skin, relative to control defined as 100%",[2]; [11],91.5%
same,"Amount of virus (average ± standard deviation, PFU/organ) Brain",[2]; [12],3.0 ± 0.6 (log10 PFU)/total
same,"Amount of virus (average ± standard deviation, PFU/organ) Skin",[2]; [12],4.8 ± 0.7 (log10 PFU)/cm^2
same,"Amount of virus Brain, relative to control defined as 100%",[2]; [12],80.7%
same,"Amount of virus Skin, relative to control defined as 100%",[2]; [12],93.9%
same,Skin/brain (ratio),[2]; [12],1.16
same,"Amount of virus (average ± standard deviation, PFU/organ) Brain",[2]; [13],2.7 ± 0.3 (log10 PFU)/total
same,"Amount of virus (average ± standard deviation, PFU/organ) Skin",[2]; [13],5.6 ± 0.2 (log10 PFU)/cm^2
same,"Amount of virus Brain, relative to control defined as 100%",[2]; [13],72.2%
same,"Amount of virus Skin, relative to control defined as 100%",[2]; [13],109.0%
same,Skin/brain (ratio),[2]; [13],31.9
same,effect to inhibit virus DNA synthesis,[3],not found
same,EC50,[4],2 ± 0.4 µg/mL
